Assay results: patent US20080207671A1, “Diagnosis and treatment of diseases arising from defects in the tuberous sclerosis pathway” (The Regents of the University of Michigan, priority 2006, published 2008)
Entries after “also recorded” stand apart in the source; their conditions may differ.

Tests used:
[1] = test system: TSC2; experiment: TSC2/TSC1 phosphorylation in transfected HEK293 cells (mobility shift, 32P labelling, two-dimensional phosphopeptide mapping); format: cell-based, human
Protocol: (§1) HEK293 cells were seeded and maintained in Dulbecco's modified Eagle's medium (DMEM) containing 10% fetal bovine serum (FBS). Transfection was performed in serum-free conditions using Lipofectamine reagent (Invitrogen, Carlsbad, Calif.) in accordance with the manufacturer's instructions. In brief, 4 h after transfection, the cells were recovered in DMEM containing 10% FBS for 16 h and then starved for 16-24 h. Cells were then lysed in lysis buffer (10 mM Tris-HCl at pH 7.5, 100 mM sodium chloride, 1% NP-40, 1% Triton X-100, 50 mM sodium fluoride, 2 mM EDTA, 1 mM phenyl methylsulphonyl fluoride, 10 μg ml^−1 leupeptin and 10 μg ml^−1 aprotinine) and immunoprecipitated with the indicated antibodies and protein G-Sepharose beads. Immunocomplexes were analyzed by SDS-polyacrylamide gel electrophoresis (PAGE).
HEK293 cells were cotransfected with HA-tagged TSC2, Myc-tagged TSC1 and the indicated plasmids. Cells were phosphate- and serum-starved for 4 h before incubation with 0.25 mCi ml^−1 32P-orthophosphate (ICN) for 4 h.
Cells were washed once with ice-cold PBS and lysed. HA-tagged TSC2 was immunoprecipitated, resolved by SDS-PAGE and transferred to a PVDF membrane. Phosphorylated TSC2 was visualized by autoradiography and phosphopeptide mapping was then performed. In brief, the phosphorylated TSC2 bands were excised, fixed in methanol and incubated in 500 μl of 0.5% polyvinylpyrrolidone-40 dissolved in 100 mM acetic acid for 30 min at 37° C. The sample were then digested with 20 μg of TPCK-treated trypsin (Sigma) at 37° C. in 75 mM ammonium bicarbonate buffer at pH 8.0 containing 5% acetonitrile. After digestion, samples were dried under vacuum and suspended in 10 μl of water. Samples were spotted onto a cellulose plate and first dimensional electrophoresis was performed using 1% ammonium bicarbonate buffer at pH 8.9. The plates were separated by chromatography in the second dimension in chromatography buffer (n-butanol:pyridine:acetic acid:water; 20:24:6:30). The plates were dried and phosphopeptides were visualized by autoradiography.

[2] = test system: HEK293 cells; experiment: Cell size of HEK293 cells by FACS; format: cell-based, human; details: 12.5 mM 2-DG or 20 nM rapamycin, 72 hours
Protocol: FIGS. 17a-17b show TSC2 plays roles for cell size control in response to energy starvation. […] HEK293 cells were cultured in the presence of 12.5 mM 2DG, TSC2 RNAi, or 20 nM rapamycin for 72 hours. Cells were harvested and FACS analysis was performed to determine cell size. The X-axis indicates relative cell size. Cell size distribution curve of the control, as indicated by the gray curve, is included in each panel for comparison purposes. […] Experiments are similar to those in panel A.

[3] = test system: EEF4 (TSC2+/+) cells; experiment: S6K and 4EBP1 phosphorylation in EEF4 (TSC2+/+) fibroblasts; format: cell-based
[4] = test system: AMPK; experiment: Immunoblot of AMPK T172 phosphorylation (AMPK activation); format: cell-based; details: 25 mM
Protocol: as §1

[5] = test system: AMPK and TSC2 interaction; experiment: Co-immunoprecipitation of endogenous AMPK and TSC2; format: cell-based, human; details: HEK293
Protocol: as §1

[6] = test system: phosphorylation of S6K, S6, 4EBP1 and mTOR; experiment: Immunoblot of S6K, S6, 4EBP1 and mTOR phosphorylation in HEK293 cells under energy depletion; format: cell-based, human
Protocol: as §1

[7] = test system: Akt phosphorylation; experiment: Immunoblot of Akt phosphorylation in HEK293 cells; format: cell-based, human; details: 25 mM 2-DG
Protocol: as §1

[8] = test system: eukaryotic elongation factor 2 (eEF2); details: Horman et al.; cited from earlier work
[9] = test system: AMPK; details: Corton et al.; cited from earlier work
[10] = test system: acetyl CoA carboxylase (ACC) and eukaryote elongation factor 2 (eEF2); experiment: Phosphorylation of the AMPK substrates ACC and eEF2; format: cell-based
[11] = test system: intracellular ATP levels; experiment: Intracellular ATP levels and AMP/ATP ratio; format: cell-based; details: 25 mM
[12] = test system: S6K and 4EBP1; details: cited from earlier work
[13] = test system: EEF8 (TSC2−/−) cells; experiment: S6K and 4EBP1 phosphorylation in EEF8 (TSC2-/-) fibroblasts; format: cell-based
[14] = test system: S6K-dC104; experiment: Phosphorylation and kinase activity of rapamycin-resistant S6K mutants (S6K-dC104, S6K-dNC); format: cell-based
Protocol: as §1
For the S6K assays, HEK293 cells grown in six-well plates were transfected with 10-20 ng HA-S6K constructs, with or without various plasmids, as indicated in the figures. HA-S6K was immunoprecipitated from serum-starved cells with an anti-HA antibody and analyzed by in vitro kinase assay using purified GST-S6 as a substrate (Pearson et al., EMBO J. 14:5279-5287 (1995)).

[15] = test system: db/db mice; format: in vivo; details: 16 weeks treatment
Protocol: m+/+ Lepr db (db/+) mice were obtained from The Charles River Japan and mated, +Lepr db/+ Lepr db mice (db/db) mice were generated.
Mice were randomly divided into four groups as follows: nondiabetic db/+; nondiabetic db/+ treated with Rapamycin; diabetic db/db: and diabetic db/db treated with Rapamycin (2.0 mg/kg body weight, 3 days/week). Rapamycin was injected intraperitoneally (i.p.) from the age of 8 weeks to 25 weeks or 16 weeks to 25 weeks. Blood glucose levels and body weight were determined weekly in all animals. Mice were housed in a 12 hr light/dark cycle and temperature-controlled environment. […]
At age 25 weeks, kidney was isolated from db/db and db/+ mice (n=10 for each group), and total RNA was purified. The expression of fibronectin and α3-type IV collagen mRNA by real-time reverse transcriptase-polymerase chain reaction (RT-PCR), which was performed in an ABI 7700 sequence detector (Applied Biosystems), was quantified. […] For quantitative RT-PCR of UCP-1, BAT (brown adipose tissue) was isolated from 2 weeks rapamycin treated or untreated mice, primers used were described previously (see, e.g., Um S H, et al., Nature 431, 200-205, 2004; herein incorporated by reference in its entirety). Data were normalized to GAPDH and analyzed by the comparative threshold cycle method. […]
Data were expressed as the means±SEM. […]

[16] = test system: db/db mice; experiment: Diabetic nephropathy in db/db mice: glomerular morphometry, gene expression, urinary albumin; format: in vivo; details: rapamycin for 8 weeks from 16 weeks of age
Protocol: Mice were randomly divided into four groups as follows: nondiabetic db/+; nondiabetic db/+ treated with Rapamycin; diabetic db/db: and diabetic db/db treated with Rapamycin (2.0 mg/kg body weight, 3 days/week). Rapamycin was injected intraperitoneally (i.p.) from the age of 8 weeks to 25 weeks or 16 weeks to 25 weeks. Blood glucose levels and body weight were determined weekly in all animals. Mice were housed in a 12 hr light/dark cycle and temperature-controlled environment. Animal care and all experiments were conducted in accordance with the institutional guidelines of the Kyushu University Graduate School of Medicine.
Seventeen weeks after treatment with rapamycin (25 week of age), mice were deeply anesthetized, after perfusion with ice-cold PBS, the kidneys were perfused with 4% paraformaldehyde. […] To quantify mesangial expansion, sections were coded and read. […] The extent of increase in mesangial matrix (defined as mesangial area) was determined by the presence of PAS-positive and nuclei-free area in the mesangium; the glomerular surface area has been measured using standard measurements of glomerular tuft areas using a the computer program of Axiovision Auto Mesure.
At age 25 weeks, kidney was isolated from db/db and db/+ mice (n=10 for each group), and total RNA was purified. […] Data were normalized to GAPDH and analyzed by the comparative threshold cycle method. […]

**Q.** Which “mobility of TSC1” value [1] does the source give for `O=CC[C@@H](O)[C@H](O)[C@H](O)CO` [2-DG, 2-deoxy-glucose] here?
**A.** Its value is “did not alter the mobility of TSC1”.

**Q.** And the “mobility shift of TSC2” value ([1]; 2-DG treatment)?
**A.** Its value is “mobility shift is due to phosphorylation”.

**Q.** And the “TSC2 phosphorylation (in vivo labeling, two dimensional phosphopeptide mapping)” value ([1]; 25 and 40 mM)?
**A.** Its value is “enhanced phosphorylation of several peptides; also recorded: induce TSC2 phosphorylation on multiple spots in vivo”.

**Q.** And the cell size [2]?
**A.** The cell size was “significantly decreased cell size; also recorded: decreases cell size”.

**Q.** And the cell size ([2]; listed as 2DG)?
**A.** Its cell size is “decreases cell size”.

**Q.** And the 4EBP1 phosphorylation [3]?
**A.** The 4EBP1 phosphorylation was “inhibition of phosphorylation of 4EBP1”.

**Q.** What about the “T172 phosphorylation in AMPK” value [4] of the same compound?
**A.** The value was “dramatic increase of T172 phosphorylation; also recorded: induces phosphorylation of AMPK”.

**Q.** What about the “AMPK activation and S6K dephosphorylation as a function of treatment time” value ([4]; time course) of the same compound?
**A.** The value was “rapid AMPK activation and concomitant dephosphorylation of S6K”.

**Q.** And the “interaction between endogenous AMPK and TSC2 (co-immunoprecipitation)” value [5]?
**A.** Its value is “interact preferentially with AMPK following 2-DG stimulation; also recorded: enhanced; also recorded: enhances the interaction between TSC2 and AMPK; also recorded: stimulates the interaction”.

**Q.** And the “phosphorylation of S6K on T389” value ([6]; 25 mM)?
**A.** The value was “effectively inhibited; also recorded: dephosphorylation”.

**Q.** And the “phosphorylation of S6 and 4EBP1” value ([6]; 25 mM)?
**A.** Its value is “dephosphorylation”.

**Q.** What about the “phosphorylation of mTOR S2448” value ([6]; 25 mM) of the same compound?
**A.** The value was “inhibited; also recorded: dephosphorylation”.

**Q.** And the “S6K phosphorylation in TSC2 RNAi knockdown cells” value ([6]; HEK293, TSC2 RNAi)?
**A.** The value was “blocked in TSC2 knockdown cells, but not in the control cells; also recorded: knockdown of TSC2 by RNA interference blocks the 2-DG response”.

**Q.** And the “phosphorylation of S6K and 4EBP1” value ([6]; depletion of cellular ATP)?
**A.** The value was “caused a dephosphorylation of S6K and 4EBP1”.

**Q.** And the Akt phosphorylation [7]?
**A.** Its Akt phosphorylation is “had little effect”.

**Q.** And the “phosphorylation of eEF2” value [8]?
**A.** Its value is “increase phosphorylation”.

**Q.** And the AMPK activation [9]?
**A.** The AMPK activation was “activate AMPK”.

**Q.** And the “phosphorylation of ACC and eEF2” value [10]?
**A.** The value was 2-DG-induced phosphorylation of ACC and eEF2.

**Q.** And the AMP/ATP ratio [11]?
**A.** Its AMP/ATP ratio is “increase; also recorded: increases the AMP/ATP ratio”.

**Q.** What about the ATP levels [11] of the same compound?
**A.** Its ATP levels is “statistically significant reduction; also recorded: decreases intracellular ATP levels”.

**Q.** And the “S6K and 4EBP1 phosphorylation” value ([12]; 20 to 100 mM, Dennis et al., 2001)?
**A.** Its value is “inhibition of S6K and 4EBP1 phosphorylation”.

**Q.** And the S6K activity ([12]; Kimura et al., Krause et al.)?
**A.** The S6K activity was “inhibit S6K activity”.

**Q.** What about the “S6K and 4EBP1 phosphorylation” value ([13]; EEF8, TSC2 T1227A/S1345A mutant expressing cells) of the same compound?
**A.** Its value is “less responsive to 2-DG treatment”.

**Q.** What about the “S6K and 4EBP1 phosphorylation” value ([13]; EEF8, vector infected cells) of the same compound?
**A.** Its value is “caused little decrease”.

**Q.** What about the “S6K and 4EBP1 phosphorylation” value ([13]; EEF8, wild type TSC2 expressing cells) of the same compound?
**A.** Its value is “significantly decreased”.

**Q.** Which “phosphorylation of Thr 389 in S6K-dC104” value [14] does the source give for `CO[C@H]1C[C@@H]2CC[C@@H](C)[C@@](O)(O2)C(=O)C(=O)N2CCCC[C@H]2C(=O)O[C@H]([C@H](C)C[C@@H]2CC[C@@H](O)[C@H](OC)C2)CC(=O)[C@H](C)/C=C(\C)[C@@H](O)[C@@H](OC)C(=O)[C@H](C)C[C@H](C)/C=C/C=C/C=C/1C` [rapamycin] here?
**A.** The value was “not inhibited”.

**Q.** And the “increase in oxygen consumption versus db/db untreated mice” value [15]?
**A.** Its value is 3.27 folds.

**Q.** And the “amount of albumin excreted relative to the starting point (16w; db/db)” value [16]?
**A.** Its value is 60%.
